Test results reported in US12448389B2, “BRM targeting compounds and associated methods of use” (Prelude Therapeutics Incorporated, priority 2020, dated 2025).

Assays:
SMARCA2-HiBiT = target: T1, SMARCA2-HiBiT (Homo sapiens, UniProt P51531); assay: SMARCA2 HiBiT degradation assay in HeLa cells; type: cell-based; conditions: 18 hours incubation; for DC50: read-out: HeLa_HiBit-SM2 DC50; for Dmax: HeLa, read-out: HeLa-HiBit-SM2 Dmax (%)
T1 construct: SMARCA2-HiBiT knock-in Hela monoclonal cell (CS302366); host or cells: HeLa monoclonal knock-in line (CRISPR HiBiT knock-in at the endogenous locus, heterozygous)
Procedure, shortened: (§1)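 HeLa monoclonal lines with heterozygous HiBiT knock-in were seeded at 2500 cells/well in EMEM with 10% FBS and treated with compound for 18 h at 37 °C. Remaining tagged protein was measured by Nano-Glo HiBiT lytic luminescence after 30–60 min at RT, and values came from curve fitting.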

SMARCA4-HiBiT = target: T2, SMARCA4-HiBiT (Homo sapiens, UniProt P51532); assay: SMARCA4 HiBiT degradation assay in HeLa cells; type: cell-based; conditions: 18 hours incubation; for DC50: read-out: HeLa-HiBit-SM4 DC50; for Dmax: HeLa, read-out: HeLa-HiBit-SM4 Dmax (%)
T2 construct: SMARCA4-HiBiT knock-in Hela monoclonal cell (CS3023226); host or cells: HeLa monoclonal knock-in line (CRISPR HiBiT knock-in at the endogenous locus, heterozygous)
Procedure, shortened: as §1

T1 sequence (P51531 whole entry): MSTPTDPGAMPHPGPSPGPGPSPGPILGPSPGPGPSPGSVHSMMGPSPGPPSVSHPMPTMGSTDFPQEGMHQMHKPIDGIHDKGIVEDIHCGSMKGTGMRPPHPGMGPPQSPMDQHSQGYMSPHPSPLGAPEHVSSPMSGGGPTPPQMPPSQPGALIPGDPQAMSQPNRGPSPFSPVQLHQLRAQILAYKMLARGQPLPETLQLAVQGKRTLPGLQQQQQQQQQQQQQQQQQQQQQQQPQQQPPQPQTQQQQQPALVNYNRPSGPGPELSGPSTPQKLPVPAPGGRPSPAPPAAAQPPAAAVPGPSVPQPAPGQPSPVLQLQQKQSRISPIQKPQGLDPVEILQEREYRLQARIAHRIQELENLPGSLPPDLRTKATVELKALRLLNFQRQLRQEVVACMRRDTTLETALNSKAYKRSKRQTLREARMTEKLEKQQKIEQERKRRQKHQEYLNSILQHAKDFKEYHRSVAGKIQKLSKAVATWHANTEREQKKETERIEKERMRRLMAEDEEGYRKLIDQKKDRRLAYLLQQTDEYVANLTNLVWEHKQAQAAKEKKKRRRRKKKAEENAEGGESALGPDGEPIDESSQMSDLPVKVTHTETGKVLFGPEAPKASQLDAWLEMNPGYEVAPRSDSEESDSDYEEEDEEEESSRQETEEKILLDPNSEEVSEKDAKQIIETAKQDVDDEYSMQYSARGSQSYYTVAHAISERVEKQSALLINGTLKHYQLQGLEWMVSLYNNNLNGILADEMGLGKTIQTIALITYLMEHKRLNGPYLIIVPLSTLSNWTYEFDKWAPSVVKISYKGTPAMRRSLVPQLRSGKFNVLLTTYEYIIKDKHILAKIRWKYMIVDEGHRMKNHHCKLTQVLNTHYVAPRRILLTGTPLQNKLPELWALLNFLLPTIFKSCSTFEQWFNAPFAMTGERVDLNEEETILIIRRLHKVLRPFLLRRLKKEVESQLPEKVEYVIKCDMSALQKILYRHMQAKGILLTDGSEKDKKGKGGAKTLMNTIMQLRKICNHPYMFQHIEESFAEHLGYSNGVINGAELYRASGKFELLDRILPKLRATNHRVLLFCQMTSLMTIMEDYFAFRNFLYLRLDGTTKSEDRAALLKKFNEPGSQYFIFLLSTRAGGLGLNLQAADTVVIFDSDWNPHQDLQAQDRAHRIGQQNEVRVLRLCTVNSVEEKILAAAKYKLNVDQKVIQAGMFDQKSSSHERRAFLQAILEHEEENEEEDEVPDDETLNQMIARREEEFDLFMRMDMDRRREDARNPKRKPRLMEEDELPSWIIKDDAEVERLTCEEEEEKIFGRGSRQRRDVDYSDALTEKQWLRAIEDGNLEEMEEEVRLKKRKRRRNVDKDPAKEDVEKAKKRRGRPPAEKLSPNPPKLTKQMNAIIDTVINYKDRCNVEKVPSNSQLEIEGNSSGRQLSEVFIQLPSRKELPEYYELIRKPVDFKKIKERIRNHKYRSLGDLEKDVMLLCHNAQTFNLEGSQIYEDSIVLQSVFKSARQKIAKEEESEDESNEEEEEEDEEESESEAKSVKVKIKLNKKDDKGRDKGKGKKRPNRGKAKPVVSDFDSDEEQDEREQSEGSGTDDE
T2 sequence (P51532 whole entry): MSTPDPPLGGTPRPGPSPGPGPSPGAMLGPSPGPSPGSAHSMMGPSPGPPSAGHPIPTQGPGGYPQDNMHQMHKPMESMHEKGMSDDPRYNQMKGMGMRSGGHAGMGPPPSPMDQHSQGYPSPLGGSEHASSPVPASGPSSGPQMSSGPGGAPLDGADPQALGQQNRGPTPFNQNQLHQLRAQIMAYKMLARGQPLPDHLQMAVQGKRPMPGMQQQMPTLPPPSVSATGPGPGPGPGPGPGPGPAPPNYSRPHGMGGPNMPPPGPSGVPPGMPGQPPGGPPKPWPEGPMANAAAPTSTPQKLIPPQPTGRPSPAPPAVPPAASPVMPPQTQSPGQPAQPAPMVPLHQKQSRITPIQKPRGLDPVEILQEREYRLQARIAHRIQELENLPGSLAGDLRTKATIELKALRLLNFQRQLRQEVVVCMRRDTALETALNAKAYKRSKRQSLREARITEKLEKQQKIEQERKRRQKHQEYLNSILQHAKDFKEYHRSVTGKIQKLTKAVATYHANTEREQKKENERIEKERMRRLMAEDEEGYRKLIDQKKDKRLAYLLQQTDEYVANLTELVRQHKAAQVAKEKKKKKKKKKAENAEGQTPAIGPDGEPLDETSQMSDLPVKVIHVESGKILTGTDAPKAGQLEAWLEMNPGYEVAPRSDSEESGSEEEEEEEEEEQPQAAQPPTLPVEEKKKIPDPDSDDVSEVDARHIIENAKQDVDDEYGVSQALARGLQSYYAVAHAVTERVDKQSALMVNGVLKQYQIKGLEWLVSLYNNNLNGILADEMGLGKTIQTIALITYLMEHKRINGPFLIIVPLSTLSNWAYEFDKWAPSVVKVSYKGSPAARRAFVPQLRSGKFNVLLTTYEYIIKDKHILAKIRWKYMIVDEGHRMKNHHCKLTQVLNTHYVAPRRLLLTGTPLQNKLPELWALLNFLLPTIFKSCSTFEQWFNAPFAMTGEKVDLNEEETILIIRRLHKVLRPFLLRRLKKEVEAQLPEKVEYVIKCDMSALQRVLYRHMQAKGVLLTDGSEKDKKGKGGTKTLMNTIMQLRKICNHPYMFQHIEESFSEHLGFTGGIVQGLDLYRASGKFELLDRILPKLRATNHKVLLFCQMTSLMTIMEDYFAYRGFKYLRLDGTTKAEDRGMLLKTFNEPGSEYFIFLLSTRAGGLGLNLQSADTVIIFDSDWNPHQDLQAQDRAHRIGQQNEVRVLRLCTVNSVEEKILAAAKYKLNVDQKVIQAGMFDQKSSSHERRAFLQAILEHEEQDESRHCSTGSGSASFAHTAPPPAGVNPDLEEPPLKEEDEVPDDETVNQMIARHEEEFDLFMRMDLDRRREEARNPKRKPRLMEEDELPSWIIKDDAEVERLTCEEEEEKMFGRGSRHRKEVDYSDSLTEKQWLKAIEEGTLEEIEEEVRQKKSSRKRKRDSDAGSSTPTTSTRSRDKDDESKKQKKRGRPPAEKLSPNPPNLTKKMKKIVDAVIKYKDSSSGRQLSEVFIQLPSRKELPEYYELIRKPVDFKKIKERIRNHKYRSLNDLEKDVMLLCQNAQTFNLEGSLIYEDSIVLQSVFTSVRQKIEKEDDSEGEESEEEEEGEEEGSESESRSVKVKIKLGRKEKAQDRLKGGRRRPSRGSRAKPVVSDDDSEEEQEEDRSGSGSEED

Row | Compound | DC50 (SMARCA2-HiBiT) [nM] | Dmax (SMARCA2-HiBiT) [%] | DC50 (SMARCA4-HiBiT) [nM] | Dmax (SMARCA4-HiBiT) [%] | HeLa-HiBit-SM4 Dmax (%) (SMARCA4-HiBiT)
1 | C[C@H]1CN2c3cc(-c4ccccc4O)nnc3NC[C@H]2CN1C[C@H]1[C@@H]2CN(CC3CCN(c4ccc5c(c4)C(=O)N(C4CCC(=O)NC4=O)C5=O)CC3)C[C@@H]21 (stereo partly drawn) [Example 44, 2-(2,6-dioxopiperidin-3-yl)-5-(4-(((1R,5S,6r)-6-(((6aS,9S)-2-(2-hydroxyphenyl)-9-methyl-5,6,6a,7,9,10-hexahydro-8H-pyrazino[1′,2′:4,5]pyrazino[2,3-c]pyridazin-8-yl)methyl)-3-azabicyclo[3.1.0]hexan-3-yl)methyl)piperidin-1-yl)isoindoline-1,3-dione] | < 10 | 75 to 85 | < 10 | 50 to 75 | –
2 | O=C1CCC(N2Cc3cc(CN4CCC(N5CCC(N6CCN7c8cc(-c9ccccc9O)nnc8NC[C@H]7C6)CC5)CC4)ccc3C2=O)C(=O)N1 (stereo partly drawn) [Example 63, 3-(5-((4-((S)-2-(2-hydroxyphenyl)-5,6,6a,7,9,10-hexahydro-8H-pyrazino[1′,2′:4,5]pyrazino[2,3-c]pyridazin-8-yl)-[1,4′-bipiperidin]-1′-yl)methyl)-1-oxoisoindolin-2-yl)piperidine-2,6-dione] | < 10 | > 85 | < 10 | > 85 | –
3 | CC1(CN2CCN3c4cc(-c5ccccc5O)nnc4NC[C@H]3C2)CCN(CC2CCN(c3ccc4c(c3)CN(C3CCC(=O)NC3=O)C4=O)CC2)CC1 (stereo partly drawn) [Example 250, 3-(5-(4-((4-(((S)-2-(2-hydroxyphenyl)-5,6,6a,7,9,10-hexahydro-8H-pyrazino[1′,2′:4,5]pyrazino[2,3-c]pyridazin-8-yl)methyl)-4-methylpiperidin-1-yl)methyl)piperidin-1-yl)-1-oxoisoindolin-2-yl)piperidine-2,6-dione] | < 10 | > 85 | < 10 | > 85 | –
4 | O=C1CCC(N2C(=O)c3ccc(N4CC(CCN5CCC(CN6CCN7c8cc(-c9ccccc9O)nnc8NC[C@H]7C6)CC5)C4)cc3C2=O)C(=O)N1 (stereo partly drawn) [Example 275, 2-(2,6-dioxopiperidin-3-yl)-5-(3-(2-(4-(((S)-2-(2-hydroxyphenyl)-5,6,6a,7,9,10-hexahydro-8H-pyrazino[1′,2′:4,5]pyrazino[2,3-c]pyridazin-8-yl)methyl)piperidin-1-yl)ethyl)azetidin-1-yl)isoindoline-1,3-dione] | < 10 | 75 to 85 | < 10 | 75 to 85 | –
5 | O=C1CCC(N2C(=O)c3ccc(N4CCC(CN5CCC(CCCN6CCN7c8cc(-c9ccccc9O)nnc8NC[C@H]7C6)CC5)CC4)cc3C2=O)C(=O)N1 (stereo partly drawn) [Example 228, 2-(2,6-dioxopiperidin-3-yl)-5-(4-((4-(3-((S)-2-(2-hydroxyphenyl)-5,6,6a,7,9,10-hexahydro-8H-pyrazino[1′,2′:4,5]pyrazino[2,3-c]pyridazin-8-yl)propyl)piperidin-1-yl)methyl)piperidin-1-yl)isoindoline-1,3-dione] | < 10 | > 85 | < 10 | > 85 | –
6 | C[C@@H]1CN(CC2CCN(c3ccc4c(c3)C(=O)N(C3CCC(=O)NC3=O)C4=O)CC2)CCN1C(=O)N1CCN2c3cc(-c4ccccc4O)nnc3NC[C@H]2C1 (stereo partly drawn) [Example 115, 2-(2,6-dioxopiperidin-3-yl)-5-(4-(((R)-4-((S)-2-(2-hydroxyphenyl)-6,6a,7,8,9,10-hexahydro-5H-pyrazino[1′,2′:4,5]pyrazino[2,3-c]pyridazine-8-carbonyl)-3-methyl-piperazin-1-yl)methyl)piperidin-1-yl)isoindoline-1,3-dione] | < 10 | 50 to 75 | < 10 | 50 to 75 | –
7 | CC1CC(CN2CCC(CN3CCN4c5cc(-c6ccccc6O)nnc5NC[C@H]4C3)CC2)CCN1c1ccc2c(c1)C(=O)N(C1CCC(=O)NC1=O)C2=O (stereo partly drawn) [Example 148, 2-(2,6-dioxopiperidin-3-yl)-5-(4-((4-(((S)-2-(2-hydroxyphenyl)-5,6,6a,7,9,10-hexahydro-8H-pyrazino[1′,2′:4,5]pyrazino[2,3-c]pyridazin-8-yl)methyl)piperidin-1-yl)methyl)-2-methylpiperidin-1-yl)isoindoline-1,3-dione] | < 10 | > 85 | < 10 | > 85 | –
8 | O=C1CCC(N2C(=O)c3ccc(N4CCC(CN5CCC(CCN6CCN7c8cc(-c9ccccc9O)nnc8NC[C@H]7C6)CC5)CC4)cc3C2=O)C(=O)N1 (stereo partly drawn) [Example 229, 2-(2,6-dioxopiperidin-3-yl)-5-(4-((4-(2-((S)-2-(2-hydroxyphenyl)-5,6,6a,7,9,10-hexahydro-8H-pyrazino[1′,2′:4,5]pyrazino[2,3-c]pyridazin-8-yl)ethyl)piperidin-1-yl)methyl)piperidin-1-yl)isoindoline-1,3-dione] | < 10 | > 85 | < 10 | > 85 | –
9 | O=C1CCC(N2C(=O)c3cc(F)c(N4CCC(CN5C[C@@H]6[C@H](C5)[C@H]6CN5CCN6c7cc(-c8ccccc8O)nnc7NC[C@H]6C5)CC4)cc3C2=O)C(=O)N1 (stereo partly drawn) [Example 173, 2-(2,6-dioxopiperidin-3-yl)-5-fluoro-6-[4-[[(1S,5R)-6-[[(10S)-4-(2-hydroxyphenyl)-1,5,6,8,12-pentazatricyclo[8.4.0.02,7]tetradeca-2,4,6-trien-12-yl]methyl]-3-azabicyclo[3.1.0]hexan-3-yl]methyl]piperidin-1-yl]isoindole-1,3-dione] | < 10 | 75 to 85 | 10 to 100 | 50 to 75 | –
10 | COC1(CN2C[C@@H]3[C@@H](CN4CCN5c6cc(-c7ccccc7O)nnc6NC[C@H]5C4)[C@@H]3C2)CCN(c2ccc3c(c2)C(=O)N(C2CCC(=O)NC2=O)C3=O)CC1 (stereo partly drawn) [Example 89, 2-(2,6-dioxopiperidin-3-yl)-5-(4-(((1R,5S,6s)-6-(((S)-2-(2-hydroxyphenyl)-5,6,6a,7,9,10-hexahydro-8H-pyrazino[1′,2′:4,5]pyrazino[2,3-c]pyridazin-8-yl)methyl)-3-azabicyclo[3.1.0]hexan-3-yl)methyl)-4-methoxypiperidin-1-yl)isoindoline-1,3-dione] | < 10 | 75 to 85 | < 10 | 50 to 75 | –
11 | O=C1CCC(N2C(=O)c3ccc(N4CC5CCC(C4)C5CN4C[C@@H]5[C@H](C4)[C@H]5CN4CCN5c6cc(-c7ccccc7O)nnc6NC[C@H]5C4)cc3C2=O)C(=O)N1 (stereo partly drawn) [Example 53, 2-(2,6-dioxopiperidin-3-yl)-5-(8-(((1R,5S,6r)-6-(((S)-2-(2-hydroxyphenyl)-5,6,6a,7,9,10-hexahydro-8H-pyrazino [1′,2′:4,5]pyrazino[2,3-c]pyridazin-8-yl)methyl)-3-azabicyclo [3.1,0]hexan-3-yl)methyl)-3-azabicyclo[3.2.1]octan-3-yl)isoindoline-1,3-dione] | < 10 | 75 to 85 | < 10 | 50 to 75 | –
12 | O=C1CCC(N2Cc3cc(C4CCN(C5CCCN(CCN6CCN7c8cc(-c9ccccc9O)nnc8NC[C@H]7C6)C5)CC4)ccc3C2=O)C(=O)N1 (stereo partly drawn) [Example 211, 3-(5-(1′-(2-((S)-2-(2-hydroxyphenyl)-5,6,6a,7,9,10-hexahydro-8H-pyrazino[1′,2′:4,5]pyrazino[2,3-c]pyridazin-8-yl)ethyl)-[1,3′-bipiperidin]-4-yl)-1-oxoisoindolin-2-yl)piperidine-2,6-dione] | < 10 | > 85 | < 10 | > 85 | –
13 | O=C1CCC(N2C(=O)c3ccc(N4CCOC(CN5CCN(C(=O)N6CCN7c8cc(-c9ccccc9O)nnc8NC[C@H]7C6)CC5)C4)cc3C2=O)C(=O)N1 (stereo partly drawn) [Example 117, 2-(2,6-dioxopiperidin-3-yl)-5-(2-((4-((S)-2-(2-hydroxyphenyl)-6,6a,7,8,9,10-hexahydro-5H-pyrazino[1′,2′:4,5]pyrazino[2,3-c]pyridazine-8-carbonyl)piperazin-1-yl)methyl)morpholino)isoindoline-1,3-dione] | < 10 | 75 to 85 | 10 to 100 | ≤ 50 | –
14 | CN(C(=O)N1CCN2c3cc(-c4ccccc4O)nnc3NC[C@H]2C1)C1CCN(CC2CCN(c3ccc4c(c3)CN(C3CCC(=O)NC3=O)C4=O)CC2)CC1 (stereo partly drawn) [Example 139, (6aS)-N-(1-((1-(2-(2,6-dioxopiperidin-3-yl)-1-oxoisoindolin-5-yl)piperidin-4-yl)methyl)piperidin-4-yl)-2-(2-hydroxyphenyl)-N-methyl-5,6,6a,7,9,10-hexahydro-8H-pyrazino[1′,2′:4,5]pyrazino[2,3-c]pyridazine-8-carboxamide] | < 10 | > 85 | < 10 | > 85 | –
15 | CC1CN(c2ccc3c(c2)C(=O)N(C2CCC(=O)NC2=O)C3=O)CCC1CN1C[C@@H]2[C@H](C1)[C@H]2CN1CCN2c3cc(-c4ccccc4O)nnc3NC[C@H]2C1 (stereo partly drawn) [Example 197, 2-(2,6-dioxopiperidin-3-yl)-5-(4-(((1R,5S,6r)-6-(((S)-2-(2-hydroxyphenyl)-5,6,6a,7,9,10-hexahydro-8H-pyrazino[1′,2′:4,5]pyrazino[2,3-c]pyridazin-8-yl)methyl)-3-azabicyclo[3.1.0]hexan-3-yl)methyl)-3-methylpiperidin-1-yl)isoindoline-1,3-dione] | < 10 | > 85 | < 10 | – | B (B=75%<Dmax<=85%)
